Source: publication PMC9653470 (2022)
“Also recorded” adds a separate entry of the source.

Assay: fresh human plasma
Conditions: 37 °C, up to 24 hours

fragment found: a, major; also recorded: b, major
Substance: H2N-USPGYS-NH2
